#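 Five concentrations, 48 hours, 96-well plates. GI50 is the concentration that inhibits growth by half. TGI marks complete inhibition of growth.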
# Key:
# Experiment in all cases: inhibition of tumour cell growth, NCI panel, 48 h
# MOLT-4 leukemia = system: MOLT-4 leukemia
# SK-OV-3 ovarian = system: SK-OV-3 ovarian
# SF-539 CNS = system: SF-539 CNS
# T-47D breast = system: T-47D breast
# NCI-H23 lung = system: NCI-H23 lung
# MDA-MB-231 breast = system: MDA-MB-231 breast
# SF-295 CNS = system: SF-295 CNS
# ACHN renal = system: ACHN renal
# SNB-19 CNS = system: SNB-19 CNS
# CCRF-CEM leukemia = system: CCRF-CEM leukemia
# NCI/ADR-RES ovarian = system: NCI/ADR-RES ovarian
# NCI-H226 lung = system: NCI-H226 lung
# SN12C renal = system: SN12C renal
# 786-0 renal = system: 786-0 renal
# COLO 205 colon = system: COLO 205 colon
# OVCAR-5 ovarian = system: OVCAR-5 ovarian
# UACC-62 melanoma = system: UACC-62 melanoma
# KM12 colon = system: KM12 colon
# RPMI-8226 leukemia = system: RPMI-8226 leukemia
# DU-145 prostate = system: DU-145 prostate
# A549 NSCLC = system: A549 NSCLC
# K-562 leukemia = system: K-562 leukemia
# PC-3 prostate = system: PC-3 prostate
# BT-549 breast = system: BT-549 breast
# SK-MEL-28 melanoma = system: SK-MEL-28 melanoma
# OVCAR-4 ovarian = system: OVCAR-4 ovarian
# SK-MEL-2 melanoma = system: SK-MEL-2 melanoma
# HOP-92 NSCLC = system: HOP-92 NSCLC
# SK-MEL-5 melanoma = system: SK-MEL-5 melanoma
# SF-268 CNS = system: SF-268 CNS
# M14 melanoma = system: M14 melanoma
# HOP-62 NSCLC = system: HOP-62 NSCLC
# HCT-15 colon = system: HCT-15 colon
# NCI-H460 lung = system: NCI-H460 lung
# SW-620 colon = system: SW-620 colon
# HS 578T breast = system: HS 578T breast
# CAKI-1 renal = system: CAKI-1 renal
# UACC-257 melanoma = system: UACC-257 melanoma
# HCT-116 colon = system: HCT-116 colon
# MALME-3M melanoma = system: MALME-3M melanoma
# HT29 colon = system: HT29 colon
# UO-31 renal = system: UO-31 renal
# SNB-75 CNS = system: SNB-75 CNS
# MDA-MB-435 = system: MDA-MB-435
# U251 CNS = system: U251 CNS
# OVCAR-8 ovarian = system: OVCAR-8 ovarian
# HL-60(TB) leukemia = system: HL-60(TB) leukemia
# EKVX NSCLC = system: EKVX NSCLC
# IGROV1 ovarian = system: IGROV1 ovarian
# HCC-2998 colon = system: HCC-2998 colon
# NCI-H522 lung = system: NCI-H522 lung
# TK-10 renal = system: TK-10 renal
# MCF7 breast = system: MCF7 breast
# A498 renal = system: A498 renal
# RXF 393 renal = system: RXF 393 renal
# SR leukemia = system: SR leukemia
structure (smiles),measurement,setting,value
O=C(Nc1cccc(C(F)(F)F)c1)c1cc(-c2ccc(F)cc2F)ccc1O,GI50,MOLT-4 leukemia,2130 nM
same,TGI,MOLT-4 leukemia,5580 nM
same,GI50,SK-OV-3 ovarian,2430 nM
same,TGI,SK-OV-3 ovarian,8620 nM
same,GI50,SF-539 CNS,3050 nM
same,TGI,SF-539 CNS,11000 nM
same,GI50,T-47D breast,2200 nM
same,TGI,T-47D breast,8640 nM
same,GI50,NCI-H23 lung,1890 nM
same,TGI,NCI-H23 lung,5580 nM
same,GI50,MDA-MB-231 breast,2010 nM
same,TGI,MDA-MB-231 breast,5170 nM
same,GI50,SF-295 CNS,1750 nM
same,TGI,SF-295 CNS,3570 nM
same,GI50,ACHN renal,2760 nM
same,TGI,ACHN renal,8670 nM
same,GI50,SNB-19 CNS,3080 nM
same,TGI,SNB-19 CNS,73500 nM
same,GI50,CCRF-CEM leukemia,2970 nM
same,TGI,CCRF-CEM leukemia,48600 nM
same,GI50,NCI/ADR-RES ovarian,2570 nM
same,TGI,NCI/ADR-RES ovarian,8630 nM
same,GI50,NCI-H226 lung,2010 nM
same,TGI,NCI-H226 lung,5340 nM
same,GI50,SN12C renal,1990 nM
same,TGI,SN12C renal,7610 nM
same,GI50,786-0 renal,3270 nM
same,TGI,786-0 renal,12000 nM
same,GI50,COLO 205 colon,3220 nM
same,TGI,COLO 205 colon,10200 nM
same,GI50,OVCAR-5 ovarian,3410 nM
same,TGI,OVCAR-5 ovarian,26400 nM
same,GI50,UACC-62 melanoma,1160 nM
same,TGI,UACC-62 melanoma,4220 nM
same,GI50,KM12 colon,2440 nM
same,TGI,KM12 colon,6120 nM
same,GI50,RPMI-8226 leukemia,1440 nM
same,TGI,RPMI-8226 leukemia,5280 nM
same,GI50,DU-145 prostate,3550 nM
same,TGI,DU-145 prostate,> 100000 nM
same,GI50,A549 NSCLC,3260 nM
same,TGI,A549 NSCLC,> 100000 nM
same,GI50,K-562 leukemia,2230 nM
same,TGI,K-562 leukemia,> 100000 nM
same,GI50,PC-3 prostate,2890 nM
same,TGI,PC-3 prostate,15100 nM
same,GI50,BT-549 breast,2130 nM
same,TGI,BT-549 breast,7240 nM
same,GI50,SK-MEL-28 melanoma,2170 nM
same,TGI,SK-MEL-28 melanoma,7580 nM
same,GI50,OVCAR-4 ovarian,3110 nM
same,TGI,OVCAR-4 ovarian,95700 nM
same,GI50,SK-MEL-2 melanoma,1460 nM
same,TGI,SK-MEL-2 melanoma,4950 nM
same,GI50,HOP-92 NSCLC,824 nM
same,TGI,HOP-92 NSCLC,4280 nM
same,GI50,SK-MEL-5 melanoma,1250 nM
same,TGI,SK-MEL-5 melanoma,2860 nM
same,GI50,SF-268 CNS,2670 nM
same,TGI,SF-268 CNS,16700 nM
same,GI50,M14 melanoma,3020 nM
same,TGI,M14 melanoma,10500 nM
same,GI50,HOP-62 NSCLC,2930 nM
same,TGI,HOP-62 NSCLC,9310 nM
same,GI50,HCT-15 colon,2210 nM
same,TGI,HCT-15 colon,6990 nM
same,GI50,NCI-H460 lung,2670 nM
same,TGI,NCI-H460 lung,13300 nM
same,GI50,SW-620 colon,3610 nM
same,TGI,SW-620 colon,14500 nM
same,GI50,HS 578T breast,2470 nM
same,TGI,HS 578T breast,9630 nM
same,GI50,CAKI-1 renal,1790 nM
same,TGI,CAKI-1 renal,5690 nM
same,GI50,UACC-257 melanoma,1500 nM
same,TGI,UACC-257 melanoma,6970 nM
same,GI50,HCT-116 colon,1890 nM
same,TGI,HCT-116 colon,4980 nM
same,GI50,MALME-3M melanoma,1770 nM
same,TGI,MALME-3M melanoma,4650 nM
same,GI50,HT29 colon,3270 nM
same,TGI,HT29 colon,16900 nM
same,GI50,UO-31 renal,2460 nM
same,TGI,UO-31 renal,10600 nM
same,GI50,SNB-75 CNS,1520 nM
same,TGI,SNB-75 CNS,4250 nM
same,GI50,MDA-MB-435,2500 nM
same,TGI,MDA-MB-435,7110 nM
same,GI50,U251 CNS,2990 nM
same,TGI,U251 CNS,17500 nM
same,GI50,OVCAR-8 ovarian,2920 nM
same,TGI,OVCAR-8 ovarian,> 100000 nM
same,GI50,HL-60(TB) leukemia,2060 nM
same,TGI,HL-60(TB) leukemia,4970 nM
same,GI50,EKVX NSCLC,2280 nM
same,TGI,EKVX NSCLC,8980 nM
same,GI50,IGROV1 ovarian,2820 nM
same,TGI,IGROV1 ovarian,17000 nM
same,GI50,HCC-2998 colon,3070 nM
same,TGI,HCC-2998 colon,13200 nM
same,GI50,NCI-H522 lung,1320 nM
same,TGI,NCI-H522 lung,9580 nM
same,GI50,TK-10 renal,4550 nM
same,TGI,TK-10 renal,30500 nM
same,GI50,MCF7 breast,2180 nM
same,TGI,MCF7 breast,9290 nM
same,GI50,A498 renal,923 nM
same,TGI,A498 renal,3210 nM
same,GI50,RXF 393 renal,2060 nM
same,TGI,RXF 393 renal,6220 nM
same,GI50,SR leukemia,2760 nM
same,TGI,SR leukemia,14000 nM
C#C[C@]1(O)CC[C@H]2[C@@H]3CC=C4c5sc(Nc6cc(Cl)ccn6)nc5CC[C@]4(C)[C@H]3CC[C@@]21C,GI50,MOLT-4 leukemia,321 nM
same,TGI,MOLT-4 leukemia,1950 nM
same,GI50,SK-OV-3 ovarian,663 nM
same,TGI,SK-OV-3 ovarian,2170 nM
same,GI50,SF-539 CNS,214 nM
same,TGI,SF-539 CNS,741 nM
same,GI50,T-47D breast,2440 nM
same,TGI,T-47D breast,> 26300 nM
same,GI50,NCI-H23 lung,1350 nM
same,TGI,NCI-H23 lung,4710 nM
same,GI50,MDA-MB-231 breast,1580 nM
same,TGI,MDA-MB-231 breast,4610 nM
same,GI50,ACHN renal,834 nM
same,GI50,SNB-19 CNS,1230 nM
same,GI50,CCRF-CEM leukemia,463 nM
same,TGI,CCRF-CEM leukemia,> 22500 nM
same,GI50,NCI/ADR-RES ovarian,1950 nM
same,TGI,NCI/ADR-RES ovarian,6650 nM
same,GI50,NCI-H226 lung,2140 nM
same,TGI,NCI-H226 lung,9840 nM
same,GI50,SN12C renal,3360 nM
same,TGI,SN12C renal,> 100000 nM
same,GI50,786-0 renal,227 nM
same,TGI,786-0 renal,594 nM
same,GI50,COLO 205 colon,1660 nM
same,TGI,COLO 205 colon,3420 nM
same,GI50,OVCAR-5 ovarian,2140 nM
same,TGI,OVCAR-5 ovarian,> 20400 nM
same,GI50,UACC-62 melanoma,846 nM
same,TGI,UACC-62 melanoma,3900 nM
same,GI50,KM12 colon,1630 nM
same,TGI,KM12 colon,8590 nM
same,GI50,RPMI-8226 leukemia,212 nM
same,TGI,RPMI-8226 leukemia,749 nM
same,GI50,DU-145 prostate,2530 nM
same,TGI,DU-145 prostate,> 100000 nM
same,GI50,A549 NSCLC,1180 nM
same,TGI,A549 NSCLC,2610 nM
same,GI50,K-562 leukemia,366 nM
same,TGI,K-562 leukemia,2450 nM
same,GI50,PC-3 prostate,386 nM
same,TGI,PC-3 prostate,3640 nM
same,GI50,BT-549 breast,627 nM
same,TGI,BT-549 breast,2360 nM
same,GI50,SK-MEL-28 melanoma,317 nM
same,TGI,SK-MEL-28 melanoma,1100 nM
same,GI50,OVCAR-4 ovarian,2800 nM
same,TGI,OVCAR-4 ovarian,> 26200 nM
same,GI50,SK-MEL-2 melanoma,1430 nM
same,TGI,SK-MEL-2 melanoma,3950 nM
same,GI50,HOP-92 NSCLC,1530 nM
same,TGI,HOP-92 NSCLC,3370 nM
same,GI50,SK-MEL-5 melanoma,1740 nM
same,TGI,SK-MEL-5 melanoma,3320 nM
same,GI50,SF-268 CNS,1450 nM
same,TGI,SF-268 CNS,4550 nM
same,GI50,M14 melanoma,736 nM
same,TGI,M14 melanoma,2270 nM
same,GI50,HOP-62 NSCLC,759 nM
same,TGI,HOP-62 NSCLC,2670 nM
same,GI50,HCT-15 colon,1010 nM
same,TGI,HCT-15 colon,4880 nM
same,GI50,NCI-H460 lung,922 nM
same,TGI,NCI-H460 lung,2670 nM
same,GI50,SW-620 colon,1090 nM
same,TGI,SW-620 colon,2680 nM
same,GI50,HS 578T breast,278 nM
same,TGI,HS 578T breast,1170 nM
same,GI50,CAKI-1 renal,725 nM
same,TGI,CAKI-1 renal,2200 nM
same,GI50,UACC-257 melanoma,727 nM
same,TGI,UACC-257 melanoma,2200 nM
same,GI50,HCT-116 colon,784 nM
same,TGI,HCT-116 colon,2350 nM
same,GI50,MALME-3M melanoma,663 nM
same,TGI,MALME-3M melanoma,2100 nM
same,GI50,HT29 colon,1420 nM
same,TGI,HT29 colon,3150 nM
same,GI50,UO-31 renal,383 nM
same,TGI,UO-31 renal,1610 nM
same,GI50,SNB-75 CNS,637 nM
same,GI50,MDA-MB-435,1060 nM
same,TGI,MDA-MB-435,3090 nM
same,GI50,U251 CNS,425 nM
same,TGI,U251 CNS,1670 nM
same,GI50,OVCAR-8 ovarian,1400 nM
same,TGI,OVCAR-8 ovarian,3190 nM
same,GI50,HL-60(TB) leukemia,402 nM
same,TGI,HL-60(TB) leukemia,2070 nM
same,GI50,EKVX NSCLC,1080 nM
same,TGI,EKVX NSCLC,4790 nM
same,GI50,IGROV1 ovarian,1780 nM
same,TGI,IGROV1 ovarian,> 21200 nM
same,GI50,HCC-2998 colon,2190 nM
same,TGI,HCC-2998 colon,5520 nM
same,GI50,NCI-H522 lung,1830 nM
same,TGI,NCI-H522 lung,4080 nM
same,GI50,TK-10 renal,2210 nM
same,TGI,TK-10 renal,11400 nM
same,GI50,MCF7 breast,516 nM
same,TGI,MCF7 breast,3430 nM
same,GI50,A498 renal,828 nM
same,TGI,A498 renal,2280 nM
same,GI50,RXF 393 renal,124 nM
same,TGI,RXF 393 renal,380 nM
same,GI50,SR leukemia,308 nM
same,TGI,SR leukemia,1380 nM

# Source: PubChem BioAssay (NCI)
